The RepoRT retention time repository

Assay: HILIC, Waters ACQUITY UPLC BEH Amide, 100 × 2.1 mm, 1.7 µm; A: water + 0.125% formic acid + 10 mM ammonium formate; B: 5% water + 95% acetonitrile + 0.125% formic acid + 10 mM ammonium formate; gradient (min/%B) 0/100 2/100 7.7/70 9.5/40 10.25/30 12.75/100 17/100
Details: stereoisomer not certain

## CN1CCC(c2ccc(F)cc2)C(COc2ccc3c(c2)OCO3)C1 (stereo not drawn) [N-Methylparoxetine]
  LC retention time: 2.2 min

## COc1cc(-c2[o+]c3cc(O)cc(O)c3cc2OC2OC(CO)C(O)C(O)C2O)cc(O)c1O (stereo not drawn) [Petunidin-3-glucoside]
  LC retention time: 4.47 min

## O=CC=Cc1ccccc1 [Cinnamaldehyde]
  LC retention time: 9.18 min

## CC(=O)CC(C)(C)O [4-Hydroxy-4-methyl-2-pentanone]
  LC retention time: 4.88 min

## NCCOP(=O)(O)O [O-Phosphocolamine]
  LC retention time: 9.23 min

## O=C(O)C1NCCC1O (stereo not drawn) [3-Hydroxyproline]
  LC retention time: 8.17 min

## O=c1cccc[nH]1 [2-Pyridone]
  LC retention time: 2.05 min

## Nc1ccn(C2OC(CO)C(O)C2O)c(=S)n1 (stereo not drawn) [2-Thiocytidine]
  LC retention time: 5.33 min

## CC(=O)CC(c1ccccc1)c1c(O)c2ccccc2oc1=O (stereo not drawn) [Warfarin]
  LC retention time: 0.99 min

## COC1C(O)C(CO)OC1n1cnc2c(N)ncnc21 (stereo not drawn) [2'-O-Methyladenosine]
  LC retention time: 2.6 min

## O=C(O)CC(O)CC(O)C=Cc1c(C2CC2)nc2ccccc2c1-c1ccc(F)cc1 (stereo not drawn) [Pitavastatin]
  LC retention time: 1.36 min

## NC(CC(=O)O)C(=O)NC(CCC(=O)O)C(=O)O (stereo not drawn) [Asp-Glu]
  LC retention time: 9.47 min

## CS(=O)(=O)c1ccc(C2=C(c3ccccc3)C(=O)OC2)cc1 [Rofecoxib]
  LC retention time: 0.97 min

## Nc1ncnc2c1[nH]c(=O)n2C1CC(O)C(CO)O1 (stereo not drawn) [8-Oxo-2-deoxyadenosine]
  LC retention time: 5.11 min

## CC1CC2C3CCC4=CC(=O)C=CC4(C)C3(F)C(O)CC2(C)C1C(=O)CO (stereo not drawn) [Desoximetasone]
  LC retention time: 1.13 min

## Nc1nc2c(ncn2C2CC(OP(=O)(O)O)C(CO)O2)c(=O)[nH]1 (stereo not drawn) [2'-Deoxyguanosine 3'-monophosphate]
  LC retention time: 9.43 min

## CN1CCC(=C2c3ccccc3C=Cc3ccccc32)CC1 [Cyproheptadine]
  LC retention time: 2.31 min

## CC(C(O)c1ccc(O)cc1)N1CCC(Cc2ccccc2)CC1 (stereo not drawn) [Ifenprodil]
  LC retention time: 3.17 min

## Nc1nc2c(ncn2C2OC3COP(=O)(O)OC3C2O)c(=O)[nH]1 (stereo not drawn) [Guanosine-3',5'-cyclic monophosphate]
  LC retention time: 8.39 min

## Cc1cnc(=O)[nH]c1N [5-Methylcytosine]
  LC retention time: 6.62 min

## CC(C)=CCCC(C)O (stereo not drawn) [6-Methyl-5-hepten-2-ol]
  LC retention time: 7.3 min

## Nc1ncnc2c1ncn2C1OC(CO)CC1O (stereo not drawn) [Cordycepin]
  LC retention time: 3.54 min

## Cn1c(=O)[nH]c2[nH]c(=O)n(C)c2c1=O [1,7-Dimethyluric acid]
  LC retention time: 4.09 min

## NC(=O)CCCCC1CCSS1 (stereo not drawn) [Lipoamide]
  LC retention time: 1.25 min

## CN1C(=O)CCC1c1cccnc1 (stereo not drawn) [Cotinine]
  LC retention time: 1.49 min

## COC(=O)c1ccccc1C(=O)OC [Dimethyl phthalate]
  LC retention time: 1.04 min

## CC(CCC(=O)O)C1CCC2C3C(=O)CC4CC(=O)CCC4(C)C3CC(=O)C12C (stereo not drawn) [Dehydrocholic acid]
  LC retention time: 1.16 min

## NC(=O)OCCCc1ccccc1 [Phenprobamate]
  LC retention time: 1.01 min

## C[N+]1(C)CCCC1C(=O)[O-] (stereo not drawn) [Stachydrine]
  LC retention time: 7.1 min

## CC(=O)C1CCC2C3CCC4=CC(=O)CCC4(C)C3CCC12C (stereo not drawn) [Progesterone]
  LC retention time: 0.97 min

## CC(=O)OCC(CCn1cnc2cnc(N)nc21)COC(C)=O [Famciclovir]
  LC retention time: 1.38 min

## CC(C)CC(O)C(=O)O (stereo not drawn) [2-Hydroxy-4-methylpentanoic acid]
  LC retention time: 1.57 min

## CCCCCC=CCC=CCC=CCC=CCCCC(=O)Nc1ccc(O)cc1 [AM 404]
  LC retention time: 0.97 min

## CN(C)C=O [N,N-Dimethylformamide]
  LC retention time: 1.29 min

## Nc1ccnc(=O)[nH]1 [Cytosine]
  LC retention time: 5.9 min

## CN1CCC23c4c5ccc(O)c4OC2C(=O)CCC3C1C5 (stereo not drawn) [Hydromorphone]
  LC retention time: 5.22 min

## N=c1ccc2nc3ccc(N)cc3sc-2c1 [Thionin]
  LC retention time: 5.23 min

## CCCCCC(=O)OC(CC(=O)[O-])C[N+](C)(C)C [Hexanoyl-L-carnitine]
  LC retention time: 5.09 min

## Cn1cncc1CC(NC(=O)CCN)C(=O)O (stereo not drawn) [Anserine]
  LC retention time: 9.49 min

## Nc1nc2ccc(Cl)cc2c2nc(-c3ccco3)nn12
  LC retention time: 1.07 min

## O=C(NCCN1CCOCC1)c1ccc(Cl)cc1 [Moclobemide]
  LC retention time: 2.03 min

## C[N+](C)(C)CC(=O)[O-] [Betaine]
  LC retention time: 7.24 min

## Cc1onc(-c2ccccc2)c1-c1ccc(S(N)(=O)=O)cc1 [Valdecoxib]
  LC retention time: 1.01 min

## CCCCCC(O)CC (stereo not drawn) [3-Octanol]
  LC retention time: 8.47 min

## COc1ccc(-c2oc3c(CC=C(C)C)c(OC4OC(CO)C(O)C(O)C4O)cc(O)c3c(=O)c2OC2OC(C)C(O)C(O)C2O)cc1 (stereo not drawn) [Icarin]
  LC retention time: 4.74 min

## OCCN1CC(O)C(O)C(O)C1CO (stereo not drawn) [Miglitol]
  LC retention time: 8.12 min

## CC(=O)NC(CCC(=O)O)C(=O)O (stereo not drawn) [N-Acetylglutamic acid]
  LC retention time: 7.67 min

## CN1CCN(c2c(F)cc3c(=O)c(C(=O)O)cn4c3c2SCC4)CC1 [Rufloxacin]
  LC retention time: 4.65 min

## CC(OC1C(N)C(O)OC(CO)C1O)C(=O)O (stereo not drawn) [Muramic acid]
  LC retention time: 8.28 min

## CCCc1c(OCCCCc2nn[nH]n2)ccc(C(C)=O)c1O [Tomelukast]
  LC retention time: 1.04 min

## O=c1ccc2ccccc2[nH]1 [2-Hydroxyquinoline]
  LC retention time: 1.51 min

## NC(Cc1ccc(O)c([N+](=O)[O-])c1)C(=O)O (stereo not drawn) [3-Nitrotyrosine]
  LC retention time: 6.88 min

## O=c1c(-c2ccc(O)cc2)coc2cc(O)ccc12 [Daidzein]
  LC retention time: 1.39 min

## CC(C)(C)NC(=O)C1CC2CCCCC2CN1CC(O)C(Cc1ccccc1)NC(=O)C(CC(N)=O)NC(=O)c1ccc2ccccc2n1 (stereo not drawn) [Saquinavir]
  LC retention time: 2.85 min

## COc1cc2c(cc1OC)C13CCN4CC5=CCOC6CC(=O)N2C1C6C5CC43 (stereo not drawn) [Brucine]
  LC retention time: 4.57 min

## Nc1ccn(C2OC(COP(=O)(O)O)C(O)C2O)c(=O)n1 (stereo not drawn) [Cytidine-5'-monophosphate]
  LC retention time: 9.48 min

## O=C(O)CNC(=O)Cc1ccccc1 [Phenylacetylglycine]
  LC retention time: 2.88 min

## CN1C(=O)C(O)N=C(c2ccccc2)c2cc(Cl)ccc21 (stereo not drawn) [Temazepam]
  LC retention time: 1.15 min

## NCCCCC(N)C(=O)NCC(=O)O (stereo not drawn) [Lys-Gly]
  LC retention time: 9.84 min

## CN(C)CCCSc1ccccc1NC(=O)C=Cc1ccccc1 [Cinanserin]
  LC retention time: 2.61 min

## C=C1CCOC1=O [alpha-Methylene-gamma-butyrolactone]
  LC retention time: 1.05 min

## CNNCc1ccc(C(=O)NC(C)C)cc1 [Procarbazine]
  LC retention time: 4.61 min

## CN1CCCC(n2nc(Cc3ccc(Cl)cc3)c3ccccc3c2=O)CC1 (stereo not drawn) [Azelastine]
  LC retention time: 2.95 min

## O=c1cc[nH]c(=O)[nH]1 [Uracil]
  LC retention time: 2.4 min

## CCOC(=O)c1cncn1C(C)c1ccccc1 (stereo not drawn) [Etomidate]
  LC retention time: 0.98 min

## CN(CC(=O)O)C(=N)N [Creatine]
  LC retention time: 8.15 min

## Oc1ccc(C2CNCCc3c2cc(O)c(O)c3Cl)cc1 (stereo not drawn) [Fenoldopam]
  LC retention time: 5.68 min

## Nc1[nH]c(=O)ncc1F [5-Flurocytosine]
  LC retention time: 4.62 min

## CC1C(=O)Nc2ccccc21 (stereo not drawn) [3-Methyloxyindole]
  LC retention time: 1.07 min

## COC1C(O)C(CO)OC1n1cc(C)c(=O)[nH]c1=O (stereo not drawn) [2'-O-Methyl-5-methyluridine]
  LC retention time: 1.75 min

## O=C1CCC(=O)CC1 [1,4-Cyclohexanedione]
  LC retention time: 1.15 min

## Cc1cn(C2CC(O)C(COP(=O)(O)O)O2)c(=O)[nH]c1=O (stereo not drawn)
  LC retention time: 8.28 min

## CCCCCN=C(N)NN=Cc1c[nH]c2ccc(OC)cc12 [Tegaserod]
  LC retention time: 2.84 min

## CC(C)(O)C1C2OC(=O)C1C1(O)CC3OC34C(=O)OC2C14C (stereo not drawn) [Picrotin]
  LC retention time: 1.21 min

## Nc1ccn(C2CC(O)C(COP(=O)(O)O)O2)c(=O)n1 (stereo not drawn) [2-Deoxycytidine-5-monophosphoric acid]
  LC retention time: 9.16 min

## OCCOCCN1CCN(C2=Nc3ccccc3Sc3ccccc32)CC1 [Quetiapine]
  LC retention time: 2.54 min

## CCCCc1oc2ccccc2c1C(=O)c1cc(I)c(OCCN(CC)CC)c(I)c1 [Amiodarone]
  LC retention time: 1.87 min

## CC(Oc1c(Cl)cccc1Cl)C1=NCCN1 (stereo not drawn) [Lofexidine]
  LC retention time: 2.65 min

## Cc1cn(C2CC(O)C(CO)O2)c(=O)[nH]c1=O (stereo not drawn) [Thymidine]
  LC retention time: 2.57 min

## O=c1[nH]cnc2nc[nH]c12 [Hypoxanthine]
  LC retention time: 4.99 min

## C[N+](C)(C)CCO [Choline [M]+]
  LC retention time: 5.18 min

## NCC(=O)N1CCCC1C(=O)O (stereo not drawn) [Gly-Pro]
  LC retention time: 8.62 min

## CC(=O)Nc1ccc(OC2OC(C(=O)O)C(O)C(O)C2O)cc1 (stereo not drawn) [Acetaminophen glucuronide]
  LC retention time: 7.73 min

## COC(=O)C1C(OC(=O)c2ccccc2)CC2CCC1N2C (stereo not drawn) [Cocaine]
  LC retention time: 2.2 min

## CC(NC(=O)C(N)CCCN=C(N)N)C(=O)O (stereo not drawn) [Arg-Ala]
  LC retention time: 9.66 min

## CC(=O)OC1CC2CCC3C(CCC4(C)C3CC([N+]3(C)CCCCC3)C4OC(C)=O)C2(C)CC1N1CCCCC1 (stereo not drawn) [Vercuronium]
  LC retention time: 5.53 min

## COc1cc2c(cc1OC)C(=O)C(CC1CCN(Cc3ccccc3)CC1)C2 (stereo not drawn) [Donepezil]
  LC retention time: 2.44 min

## CN(Cc1cnc2nc(N)nc(N)c2n1)c1ccc(C(=O)NC(CCC(=O)O)C(=O)O)cc1 (stereo not drawn) [Methotrexate]
  LC retention time: 7.67 min

## Cc1ccsc1C(=CCCN1CCCC(C(=O)O)C1)c1sccc1C (stereo not drawn) [Tiagabine]
  LC retention time: 3.94 min

## CC(OP(=O)(O)O)C(N)C(=O)O (stereo not drawn) [o-Phosphothreonine]
  LC retention time: 9.74 min

## CC#CC1(O)CCC2C3CCC4=CC(=O)CCC4=C3C(c3ccc(N(C)C)cc3)CC21C (stereo not drawn) [Mifepristone]
  LC retention time: 1 min

## c1ccc(-c2ccc(C(c3ccccc3)n3ccnc3)cc2)cc1 (stereo not drawn) [Bifonazole]
  LC retention time: 1.19 min

## CNCC(=O)O [Sarcosine]
  LC retention time: 7.82 min
